Here are results for eight sequences from patent publication US8871719B2, “Modified MELK peptides and vaccines containing the same” (OncoTherapy Science, Inc., priority 2010, dated 2014).

The subject of assay [1] is peptide-pulsed A24LCL cells. Nature of the assay: In vitro CTL induction, IFN-gamma ELISPOT assay. The class given is cell-based, human. As to conditions: for IFN-gamma production of CTLs (ELISPOT): target cells pulsed with cognate peptide vs not pulsed; for CTL inducibility / CTL activity: in vitro stimulation of T-cells by peptide-loaded DCs; for Immunogenicity compared to MELK-A24-9-87_WT: CTL induction from donors B and C. The source says:
Monocyte-derived dendritic cells (DCs) were used as antigen-presenting cells (APCs) to induce cytotoxic T lymphocyte (CTL) responses against peptides presented on HLA. DCs were generated in vitro as described elsewhere (Nakahara S et al., Cancer Res 2003 Jul. 15, 63(14): 4112-8). Specifically, peripheral blood mononuclear cells (PBMCs) isolated from three healthy donors termed donors A, B and C (HLA-A*2402 positive) by Ficoll-Plaque (Pharmacia) solution were separated by adherence to a plastic tissue culture dish (Becton Dickinson) so as to enrich them as the monocyte fraction. The monocyte-enriched population was cultured in the presence of 1,000 U/ml of granulocyte-macrophage colony-stimulating factor (GM-CSF) (R&D System) and 1,000 U/ml of interleukin (IL)-4 (R&D System) in AIM-V Medium (Invitrogen) containing 2% heat-inactivated autologous serum (AS). After 7 days of culture, the cytokine-induced DCs were pulsed with 20 micro-g/ml of each of the synthesized peptides in the presence of 3 micro-g/ml of beta2-microglobulin for 3 hrs at 37 degrees C. in AIM-V Medium. The generated cells appeared to express DC-associated molecules, such as CD80, CD83, CD86 and HLA class II, on their cell surfaces (data not shown). These peptide-pulsed DCs were then inactivated by X-irradiation (20 Gy) and mixed at a 1:20 ratio with autologous CD8+ T cells, obtained by positive selection with CD8 Positive Isolation Kit (Dynal). These cultures were set up in 48-well plates (Corning); each well contained 1.5×10^4 peptide-pulsed DCs, 3×10^5 CD8+ T cells and 10 ng/ml of IL-7 (R&D System) in 0.5 ml of AIM-V/2% AS medium. 3 days later, these cultures were supplemented with IL-2 (CHIRON) to a final concentration of 20 IU/ml. On days 7 and 14, the T cells were further stimulated with the autologous peptide-pulsed DCs. The DCs were prepared each time by the same way described above. CTLs were tested against peptide-pulsed A24LCL cells after the 3rd round of peptide stimulation on day 21 (Tanaka H et al., Br J Cancer 2001 Jan. 5, 84(1): 94-9; Umano Y et al., Br J Cancer 2001 Apr. 20, 84(8): 1052-7; Uchida N et al., Clin Cancer Res 2004 Dec. 15, 10(24): 8577-86; Suda T et al., Cancer Sci 2006 May, 97(5): 411-9; Watanabe T et al., Cancer Sci 2005 August, 96(8): 498-506).
(§1) Specifically, peptide-pulsed A24LCL (1×10^4/well) and tumor cell lines (5×10^4/well) were prepared as stimulator cells. Cultured cells in 48 wells, CTL lines and clones were used as responder cells. IFN-gamma ELISPOT assay and IFN-gamma ELISA assay were performed under manufacture procedure.

Assay [2] relates to peptide-pulsed A24LCL cells. Nature of the assay: CTL lines, IFN-gamma ELISA assay. The class given is cell-based, human. As to the method:
CTLs were expanded in culture using the method similar to the one described by Riddell et al. (Walter E A et al., N Engl J Med 1995 Oct. 19, 333(16): 1038-44; Riddell S R et al., Nat Med 1996 Feb. 2(2): 216-23). A total of 5×10^4 CTLs were suspended in 25 ml of AIM-V/5% AS medium with 2 kinds of human B-lymphoblastoid cell lines, inactivated by MMC, in the presence of 40 ng/ml of anti-CD3 monoclonal antibody (Pharmingen). One day after initiating the cultures, 120 IU/ml of IL-2 were added to the cultures. The cultures were fed with fresh AIM-V/5% AS medium containing 30 IU/ml of IL-2 on days 5, 8 and 11 (Tanaka H et al., Br J Cancer 2001 Jan. 5, 84(1): 94-9; Umano Y et al., Br J Cancer 2001 Apr. 20, 84(8): 1052-7; Uchida N et al., Clin Cancer Res 2004 Dec. 15, 10(24): 8577-86; Suda T et al., Cancer Sci 2006 May, 97(5): 411-9; Watanabe T et al., Cancer Sci 2005 August, 96(8): 498-506).
as §1
(In general: In an ELISA, binding on a coated surface is turned into a signal by an enzyme label.)

Assay [3] has as its system peptide-pulsed A24LCL cells. Kind of assay: CTL clones, IFN-gamma ELISA assay. The note with it: for IFN-gamma production of CTL clones (ELISA): donor B. The class given is cell-based, human. As to the method:
The dilutions were made to have 0.3, 1, and 3 CTLs/well in 96 round-bottomed micro titer plate (Nalge Nunc International). CTLs were cultured with 1×10^4 cells/well of 2 kinds of human B-lymphoblastoid cell lines, 30 ng/ml of anti-CD3 antibody, and 125 U/ml of IL-2 in a total of […] of AIM-V Medium containing 5% AS. 50 micro-1/well of IL-2 were added to the medium 10 days later so to reach a final concentration of 125 U/ml IL-2. CTL activity was tested on the 14th day, and CTL clones were expanded using the same method as described above (Uchida N et al., Clin Cancer Res 2004 Dec. 15, 10(24): 8577-86; Suda T et al., Cancer Sci 2006 May, 97(5): 411-9; Watanabe T et al., Cancer Sci 2005 August, 96(8): 498-506).
as §1

Assay [4] deals with COS7 cells transfected with MELK and HLA-A*2402. Nature of the assay: Specific CTL activity against transfected COS7 cells. It counts as cell-based. As to the method:
as §1
The cDNA encoding an open reading frame of target gene or HLA-A*2402 was amplified by PCR. The PCR-amplified products were cloned into pCAGGS vector. The plasmids were transfected into COST, which is the target genes and HLA-A24 negative cell line, using lipofectamine 2000 (Invitrogen) according to the manufacturer's recommended procedures. After 2 days from transfection, the transfected cells were harvested with versene (Invitrogen) and used as stimulator cells (5×10^4 cells/well) for CTL activity assay.

The test system of assay [5] is tumor cell lines MDA-MB-4355 (MELK+, A24+) and KLM-1 (MELK+, A24+). Nature of the assay: Specific CTL activity against tumor cell lines expressing MELK and HLA-A*2402. It counts as cell-based, human. As to conditions: for IFN-gamma production / CTL activity of CTL clone against KLM-1: KLM-1 (MELK+, A24+) compared with KP-1N. As to the method:
(§2) TISI, human leukocyte antigen (HLA)-A*2402 positive B-lymphoblastoid cell line, was purchased from the IHWG Cell and Gene Bank (Seattle, Wash.). COS7, MDA-MB-435S and T47D were purchased from ATCC. KLM-1 and KP-1N were purchased from RIKEN cell bank and JCRB cell bank, respectively.
as §1

The test system of assay [6] is T47D (MELK+, A24−) and KP-1N (MELK+, A24−). Kind of assay: Specific CTL activity against tumor cell lines expressing MELK but not HLA-A*2402. The class given is cell-based, human. The note with it: T47D and KP-1N (MELK+, A24−). As to the method: as §2, §1
Where [7] appears, read: donor A, target cells pulsed with cognate peptide vs without peptide pulse.
Setting [8] is: donor C, target cells pulsed with MELK-A24-9-87_WT vs irrelevant HIV peptide.
Where [9] appears, read: donor B, target cells pulsed with MELK-A24-9-87_WT vs irrelevant HIV peptide.
The mark [10] stands for this setting: target cells pulsed with MELK-A24-9-87_WT vs irrelevant HIV peptide.

“Also recorded” adds a separate entry of the source.

Regarding DYIISQDRL [SEQ ID NO: 2], the “IFN-gamma production of CTLs (ELISPOT)” value in assay [1] (donor A, listed as MELK-A24-9-96) was “typical negative data; also recorded: specific IFN-gamma production was not shown”.

Regarding EYCPGGELF [MELK-A24-9-87_WT], the “IFN-gamma production of CTLs (ELISPOT)” value in assay [1] (donor A) is reported as “potent IFN-gamma production; also recorded: potential IFN-gamma productive ability”; in assay [1] (donor B) it was “no specific IFN-gamma production was detected; also recorded: peptide specific IFN-gamma production was not detected”. Besides, in assay [1], the “CTL inducibility / CTL activity” value was “significant and specific CTL activity”. The “IFN-gamma production of CTL lines (ELISA)” value in assay [2] (setting [7]) was “potent IFN-gamma production”; in assay [2] (setting [8]), “no IFN-gamma production; also recorded: CTL line was not established”. For the same sequence, the “IFN-gamma production of CTL clone (ELISA)” value in assay [3] (donor A, target cells pulsed with cognate peptide vs not pulsed) is given as “potent IFN-gamma production”. The “Specific CTL activity of CTL clone against controls” value in assay [4] (COS7 cells expressing either HLA-A*2402 or MELK) is on record as “no significant specific CTL activity”. Also, the “Specific CTL activity of CTL clone” value in assay [4] (COS7 cells transfected with both MELK and HLA-A*2402) is recorded as “potent CTL activity; also recorded: specific CTL activity”.

With EYCPGGNLF [MELK-A24-9-87_7N], the “Immunogenicity compared to MELK-A24-9-87_WT” value in assay [1] was “superior immunogenicity”. For the same sequence, the “IFN-gamma production of CTLs (ELISPOT)” value in assay [1] (donor B) and in assay [1] (donor C) was “potent IFN-gamma production; also recorded: potential IFN-gamma productive ability” throughout. For the same sequence, the “CTL inducibility / CTL activity” value was “significant and specific CTL activity; also recorded: CTLs were successfully established” in assay [1]; “particularly strong CTL inducibility” in assay [1] (listed as 44). Also, the “IFN-gamma production of CTL lines (ELISA)” value in assay [2] (setting [9]) was “potent IFN-gamma production”; in assay [2] (setting [8]), “peptide specific IFN-gamma production; also recorded: IFN-gamma production was detected”. Further, the “IFN-gamma production of CTL clones (ELISA)” value in assay [3] (setting [10]) was “potent IFN-gamma production”. Also, the “IFN-gamma production of CTL clone (ELISA)” value in assay [3] (setting [8]) is on record as “potent IFN-gamma production”. Also, the “IFN-gamma production / CTL activity of CTL clone against KLM-1” value in assay [5] is reported as “specific CTL activity”. Further, the “CTL activity of CTL line against tumor cell lines” value is reported as “potent CTL activity; also recorded: specific CTL activity” in assay [5] (MDA-MB-4355 and KLM-1 (MELK+, A24+)); “without showing CTL activity” in assay [6].

For the sequence EYMPGGELF [MELK-A24-9-87_3M], in assay [1], the “Immunogenicity compared to MELK-A24-9-87_WT” value is on record as “superior immunogenicity”. Besides, in assay [1] (donor B), the “IFN-gamma production of CTLs (ELISPOT)” value is reported as “potent IFN-gamma production; also recorded: potential IFN-gamma productive ability”. Further, the “CTL inducibility / CTL activity” value is “significant and specific CTL activity; also recorded: CTLs were successfully established” in assay [1]; “particularly strong CTL inducibility” in assay [1] (listed as 41). The “IFN-gamma production of CTL lines (ELISA)” value in assay [2] (setting [9]) is listed as “potent IFN-gamma production”. In addition, the “IFN-gamma production of CTL clones (ELISA)” value in assay [3] (setting [10]) is “potent IFN-gamma production”.

With KYCPGGELF [MELK-A24-9-87_1K], in assay [1], the “Immunogenicity compared to MELK-A24-9-87_WT” value is “superior immunogenicity”; the “CTL inducibility / CTL activity” value was “significant and specific CTL activity; also recorded: CTLs were successfully established”. In assay [1] (donor B), the “IFN-gamma production of CTLs (ELISPOT)” value is reported as “potent IFN-gamma production; also recorded: potential IFN-gamma productive ability”. Besides, the “CTL inducibility / CTL activity” value in assay [1] (listed as 35) was “particularly strong CTL inducibility”. The “IFN-gamma production of CTL lines (ELISA)” value in assay [2] (setting [9]) is recorded as “potent IFN-gamma production”. In assay [3] (setting [10]), the “IFN-gamma production of CTL clones (ELISA)” value is listed as “potent IFN-gamma production”.

Turning to LYVLMCGFL [SEQ ID NO: 1], the “IFN-gamma production of CTLs (ELISPOT)” value in assay [1] (donor A, listed as MELK-A24-9-199) is on record as “potent IFN-gamma production; also recorded: potential IFN-gamma productive ability”. Also, the “IFN-gamma production of CTL lines (ELISA)” value in assay [2] (setting [7]) is “potent IFN-gamma production”. Also, the “IFN-gamma production of CTL clone (ELISA)” value in assay [3] (donor A, target cells pulsed with cognate peptide vs not pulsed, listed as MELK-A24-9-199) is “potent IFN-gamma production; also recorded: had the ability to recognize the peptide-pulsed target cells”. In assay [5], the “IFN-gamma production / CTL activity of CTL clone against KLM-1” value was “no IFN-gamma production”.

TANKIFMVL [SEQ ID NO: 21]: the “IFN-gamma production of CTLs (ELISPOT)” value in assay [1] (donor A, listed as MELK-A24-9-78) was “potent IFN-gamma production; also recorded: potential IFN-gamma productive ability”.

Regarding VYKRLVEDIL [SEQ ID NO: 23], the “IFN-gamma production of CTLs (ELISPOT)” value in assay [1] (donor A, listed as MELK-A24-10-637) is reported as “potent IFN-gamma production; also recorded: potential IFN-gamma productive ability”. Also, in assay [1], the “CTL inducibility / CTL activity” value is “significant and specific CTL activity”. Besides, the “IFN-gamma production of CTL lines (ELISA)” value in assay [2] (setting [7]) is recorded as “potent IFN-gamma production”.
